# Reference: patent US20260041670A1, “DRUGS FOR PREVENTING AND/OR TREATING ALZHEIMER'S DISEASE” (SHENZHEN UNIVERSITY OF ADVANCED TECHNOLOGY, priority 2023, published 2026)
# Biological target: T1, TrkB (Homo sapiens, UniProt Q16620)
# T1 construct: expressed in transfected cells; host or cells: human SH-SY5Y cells (BR6/Br6) and T48 cells
# Test: Pro-survival MTT assay after staurosporine-induced apoptosis in BR6 and T48 cells
# Assay type: cell-based
# Conditions: STS 100 nM, 24 h, in words, relative to CF3CN
# Procedure: FIG. 1b illustrates EC50 values of CF3CN and derivatives thereof. BR6 and T48 cells are treated with staurosporine (STS) (100 nM) and TrkB agonists. CF3CN and compounds #1-4 are added in a dose-dependent manner at concentrations of 0, 5, 10, 50, 100, 500, and 1,000 nM. After 24 h, an MTT assay is performed, and EC50 values are calculated using Prism software (n=3; data are represented by mean±standard deviation (SD)).
# The pro-survival effects of four derivatives were quantitatively analyzed in human SH-SY5Y cells and T48 cells stably transfected with the TrkB. […] As PLCγ1 bound with a p-Y816 residue on the TrkB receptor and was subsequently tyrosine-phosphorylated by active TrkB, a tyrosine phosphorylation signal was also monitored in this example (FIG. 1c).
# T1 sequence (Q16620 32-822, species assumed): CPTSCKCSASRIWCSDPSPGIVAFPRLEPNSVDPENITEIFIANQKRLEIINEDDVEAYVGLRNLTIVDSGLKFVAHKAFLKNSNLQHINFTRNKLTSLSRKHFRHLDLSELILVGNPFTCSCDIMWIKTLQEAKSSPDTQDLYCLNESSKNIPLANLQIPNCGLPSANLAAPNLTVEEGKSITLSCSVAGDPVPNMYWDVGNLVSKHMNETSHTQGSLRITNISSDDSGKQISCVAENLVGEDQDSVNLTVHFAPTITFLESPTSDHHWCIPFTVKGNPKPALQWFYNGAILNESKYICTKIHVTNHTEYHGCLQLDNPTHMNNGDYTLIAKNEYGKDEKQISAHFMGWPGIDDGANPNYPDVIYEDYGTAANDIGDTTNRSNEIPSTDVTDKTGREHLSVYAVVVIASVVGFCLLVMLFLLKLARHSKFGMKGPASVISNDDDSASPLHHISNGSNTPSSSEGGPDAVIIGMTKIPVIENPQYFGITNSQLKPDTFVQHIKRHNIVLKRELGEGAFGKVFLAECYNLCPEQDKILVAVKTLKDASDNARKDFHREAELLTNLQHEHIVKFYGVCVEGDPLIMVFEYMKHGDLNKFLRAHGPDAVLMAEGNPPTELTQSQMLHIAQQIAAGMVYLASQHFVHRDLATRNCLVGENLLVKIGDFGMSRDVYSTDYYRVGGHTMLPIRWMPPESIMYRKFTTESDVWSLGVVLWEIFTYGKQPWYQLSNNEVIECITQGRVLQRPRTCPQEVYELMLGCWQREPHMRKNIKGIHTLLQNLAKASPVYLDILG
compound,measurement,value
CNCc1ccc(-c2cc(=O)c3ccc4nc(C(F)(F)F)[nH]c4c3o2)cc1 [#2],pro-survival EC50,comparable
